This is an account of results in ChEMBL document CHEMBL1144322, “Structure-based design of potent and selective inhibitors of collagenase-3 (MMP-13)” (Bioorg Med Chem Lett, 2005).

Test [1] deals with 72 kDa type IV collagenase (Homo sapiens, UniProt P08253). In words: Inhibition of matrix metalloprotease-2.
In the next test the target is T1, Interstitial collagenase (Homo sapiens, UniProt P03956).
T1 sequence (P03956 whole entry): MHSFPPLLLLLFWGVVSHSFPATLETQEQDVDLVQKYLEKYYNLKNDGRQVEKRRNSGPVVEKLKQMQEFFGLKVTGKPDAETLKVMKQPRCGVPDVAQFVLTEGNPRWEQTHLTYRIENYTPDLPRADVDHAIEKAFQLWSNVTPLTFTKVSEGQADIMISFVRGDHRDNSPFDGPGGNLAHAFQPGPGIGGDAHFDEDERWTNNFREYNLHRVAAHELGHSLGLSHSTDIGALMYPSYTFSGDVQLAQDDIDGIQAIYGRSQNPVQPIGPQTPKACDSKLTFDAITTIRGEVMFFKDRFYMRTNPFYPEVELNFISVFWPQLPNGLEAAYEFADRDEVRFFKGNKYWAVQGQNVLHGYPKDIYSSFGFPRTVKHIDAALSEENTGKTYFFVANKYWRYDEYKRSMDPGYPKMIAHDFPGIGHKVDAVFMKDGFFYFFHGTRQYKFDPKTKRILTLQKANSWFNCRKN
In words: Inhibition of matrix metalloprotease-1.

A further test has as its target Stromelysin-1 (Homo sapiens, UniProt P08254). In words: Inhibition of matrix metalloprotease-3.
In test [2] the target is Matrix metalloproteinase-9 (Homo sapiens, UniProt P14780). In words: Inhibition of matrix metalloprotease-9.
Chain of Matrix metalloproteinase-9 (P14780 whole entry): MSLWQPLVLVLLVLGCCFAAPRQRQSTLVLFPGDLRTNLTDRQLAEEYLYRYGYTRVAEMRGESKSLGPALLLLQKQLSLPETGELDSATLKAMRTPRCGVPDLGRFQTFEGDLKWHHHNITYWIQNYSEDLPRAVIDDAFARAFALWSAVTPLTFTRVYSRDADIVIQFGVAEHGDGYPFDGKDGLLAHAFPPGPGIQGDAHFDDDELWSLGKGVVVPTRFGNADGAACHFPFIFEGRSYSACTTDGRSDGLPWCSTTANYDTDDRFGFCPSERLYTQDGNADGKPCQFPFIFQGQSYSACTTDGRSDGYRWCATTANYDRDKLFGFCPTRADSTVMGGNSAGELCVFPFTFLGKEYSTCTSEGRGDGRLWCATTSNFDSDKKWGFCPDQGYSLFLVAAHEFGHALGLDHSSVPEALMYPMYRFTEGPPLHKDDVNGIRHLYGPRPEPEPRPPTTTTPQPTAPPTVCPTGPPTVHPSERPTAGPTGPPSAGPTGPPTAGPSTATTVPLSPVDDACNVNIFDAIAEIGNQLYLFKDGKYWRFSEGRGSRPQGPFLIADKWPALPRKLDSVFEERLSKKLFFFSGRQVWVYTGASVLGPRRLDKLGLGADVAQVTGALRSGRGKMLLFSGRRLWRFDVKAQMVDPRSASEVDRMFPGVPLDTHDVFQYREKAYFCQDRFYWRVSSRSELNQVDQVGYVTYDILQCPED
Test [3] addresses T2, Collagenase 3 (Homo sapiens, UniProt P45452). In words: Inhibition of matrix metalloprotease-13.
Test [4] deals with Disintegrin and metalloproteinase domain-containing protein 17 (Homo sapiens, UniProt P78536). In words: Inhibition of TNF-alpha converting enzyme (TACE, ADAM17).
Chain of Disintegrin and metalloproteinase domain-containing protein 17 (P78536 whole entry, the tested form may be a part): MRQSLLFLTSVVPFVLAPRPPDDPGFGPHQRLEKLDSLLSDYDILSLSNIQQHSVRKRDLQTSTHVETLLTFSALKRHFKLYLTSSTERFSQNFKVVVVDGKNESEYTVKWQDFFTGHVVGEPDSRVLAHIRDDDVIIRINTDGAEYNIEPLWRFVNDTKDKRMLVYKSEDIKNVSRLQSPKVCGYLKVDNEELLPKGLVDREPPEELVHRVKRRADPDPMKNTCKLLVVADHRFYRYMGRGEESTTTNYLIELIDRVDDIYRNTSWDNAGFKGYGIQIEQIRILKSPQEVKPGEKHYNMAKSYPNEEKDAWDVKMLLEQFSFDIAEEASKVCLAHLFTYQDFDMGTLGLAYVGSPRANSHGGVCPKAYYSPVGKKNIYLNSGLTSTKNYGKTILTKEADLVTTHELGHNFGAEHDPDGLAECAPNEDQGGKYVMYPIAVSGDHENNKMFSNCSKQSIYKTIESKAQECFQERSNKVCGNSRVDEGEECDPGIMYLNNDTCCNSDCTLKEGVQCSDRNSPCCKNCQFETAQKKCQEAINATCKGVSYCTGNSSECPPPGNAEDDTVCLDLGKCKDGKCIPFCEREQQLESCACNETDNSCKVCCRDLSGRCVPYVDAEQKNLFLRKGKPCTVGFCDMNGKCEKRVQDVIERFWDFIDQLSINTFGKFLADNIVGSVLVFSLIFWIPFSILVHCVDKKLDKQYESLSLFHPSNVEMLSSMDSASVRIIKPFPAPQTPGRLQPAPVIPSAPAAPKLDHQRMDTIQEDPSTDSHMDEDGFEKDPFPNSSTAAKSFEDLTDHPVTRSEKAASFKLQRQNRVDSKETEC
Test [5] has as its target T2, Collagenase 3. In words: Binding affinity for matrix metalloprotease 13.

Chain of Stromelysin-1 (P08254 whole entry): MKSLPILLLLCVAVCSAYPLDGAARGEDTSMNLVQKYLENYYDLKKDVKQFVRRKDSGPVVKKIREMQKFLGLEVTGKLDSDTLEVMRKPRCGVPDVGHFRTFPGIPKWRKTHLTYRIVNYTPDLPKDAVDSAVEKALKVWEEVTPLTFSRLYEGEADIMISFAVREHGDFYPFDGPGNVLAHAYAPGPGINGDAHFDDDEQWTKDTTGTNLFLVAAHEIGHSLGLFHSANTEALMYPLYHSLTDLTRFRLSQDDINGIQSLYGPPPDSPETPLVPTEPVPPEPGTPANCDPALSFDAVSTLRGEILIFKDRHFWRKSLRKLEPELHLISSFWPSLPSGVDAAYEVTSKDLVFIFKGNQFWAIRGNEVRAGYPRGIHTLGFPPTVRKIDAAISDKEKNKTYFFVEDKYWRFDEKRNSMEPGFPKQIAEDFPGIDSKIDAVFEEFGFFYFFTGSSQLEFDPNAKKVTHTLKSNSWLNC
Chain of 72 kDa type IV collagenase (P08253 whole entry): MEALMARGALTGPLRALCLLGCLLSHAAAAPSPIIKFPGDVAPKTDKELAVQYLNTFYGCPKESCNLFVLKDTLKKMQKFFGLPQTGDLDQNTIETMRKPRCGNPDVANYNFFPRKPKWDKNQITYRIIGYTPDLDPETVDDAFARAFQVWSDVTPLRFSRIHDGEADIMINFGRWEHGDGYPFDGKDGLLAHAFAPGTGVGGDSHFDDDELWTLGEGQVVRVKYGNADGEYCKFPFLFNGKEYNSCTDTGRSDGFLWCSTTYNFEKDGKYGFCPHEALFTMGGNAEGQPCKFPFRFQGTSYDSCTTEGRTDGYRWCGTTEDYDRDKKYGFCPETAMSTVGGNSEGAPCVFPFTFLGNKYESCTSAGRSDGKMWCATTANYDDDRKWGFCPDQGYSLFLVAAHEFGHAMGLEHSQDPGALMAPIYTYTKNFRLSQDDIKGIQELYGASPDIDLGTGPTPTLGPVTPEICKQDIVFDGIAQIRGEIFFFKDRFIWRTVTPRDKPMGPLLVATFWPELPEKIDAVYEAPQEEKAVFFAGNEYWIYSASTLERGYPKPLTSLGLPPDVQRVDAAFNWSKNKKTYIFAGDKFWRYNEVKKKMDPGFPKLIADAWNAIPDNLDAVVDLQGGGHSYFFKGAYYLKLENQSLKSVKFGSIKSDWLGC

In the case of `O=C1NC(=O)C2(CCC(=O)N2c2ccc(Oc3ccc(Oc4ccccc4)cc3)cc2)C(=O)N1`, the inhibitory constant (Ki) in test [1] is 1.8 nM; at Interstitial collagenase it was greater than 5000 nM; at Stromelysin-1, 110 nM; in test [2] it was 1.9 nM; at Collagenase 3 [3] it was 0.33 nM; in test [4] it was greater than 1000 nM.

Consider `O=C1NC(=O)C2(CCC(=O)N2c2ccc(Oc3ccccc3)cc2)C(=O)N1`, for which the Ki in test [1] was 1.6 nM; on Interstitial collagenase it was greater than 5000 nM; at Stromelysin-1, 4500 nM; in test [2], 4.7 nM; on Collagenase 3 [3], 4.7 nM; in test [4] it was greater than 1000 nM.

With `COc1ccccc1Oc1ccc(N2C(=O)CCC23C(=O)NC(=O)NC3=O)cc1`, affinity on Collagenase 3 [3] was put at a Ki of 110 nM.

On to `O=C1NC(=O)C2(CCC(=O)N2c2ccccc2)C(=O)N1`, for which, on Collagenase 3 [3], the affinity corresponds to a Ki of 2200 nM.

On to `O=C1NC(=O)C2(CCC(=O)N2c2ccc(Oc3ccc4c(c3)OCO4)cc2)C(=O)N1`, for which the affinity at Collagenase 3 [3] corresponds to a Ki of 5.8 nM.

In the case of `O=C1NC(=O)C2(CCC(=O)N2c2ccc(Oc3ccc(C(=O)O)cc3)cc2)C(=O)N1`, the Ki in test [1] is 0.23 nM; at Interstitial collagenase, greater than 5000 nM; on Stromelysin-1, 3200 nM; in test [2], 0.72 nM; at Collagenase 3 [3], 2.7 nM; in test [4], greater than 1000 nM.

As to `O=C1NC(=O)C2(CCC(=O)N2c2ccc(Oc3ccc(Cl)cc3)cc2)C(=O)N1`, the inhibition constant (Ki) in test [1] is 0.43 nM; at Interstitial collagenase, greater than 5000 nM; at Stromelysin-1, 430 nM; in test [2], 0.72 nM; on Collagenase 3 [3], 0.95 nM; in test [4], greater than 1000 nM.

For the compound `O=C1NC(=O)C2(CCC(=O)N2c2ccc(-c3ccccc3)cc2)C(=O)N1`, at Collagenase 3 [3], the Ki was found to be 934 nM.

On Collagenase 3 [3], `O=C1NC(=O)C2(CCC(=O)N2c2ccc(Br)cc2)C(=O)N1` showed a Ki of 130 nM.

`O=C1NC(=O)C2(CCC(=O)N2c2ccc(OCc3ccccc3)cc2)C(=O)N1`: the Ki at Collagenase 3 [3] was 1100 nM.

In turn, `COc1cccc(Oc2ccc(N3C(=O)CCC34C(=O)NC(=O)NC4=O)cc2)c1` gave a Ki on Collagenase 3 [3] of 1.9 nM.

For the compound `COC(=O)c1ccc(Oc2ccc(N3C(=O)CCC34C(=O)NC(=O)NC4=O)cc2)cc1`, the Ki in test [1] was 4.7 nM; on Interstitial collagenase it was greater than 5000 nM; on Stromelysin-1, 1300 nM; in test [2], 1.2 nM; on Collagenase 3 [3], 4.2 nM; in test [4] it was greater than 1000 nM.

As for `COc1ccncc1Oc1ccc(N2C(=O)CCC23C(=O)NC(=O)NC3=O)cc1`, affinity on Collagenase 3 [3] was put at a Ki of 25 nM.

Regarding `O=C1NC(=O)C2(CCC(=O)N2c2ccc(Oc3cccc(Cl)c3)cc2)C(=O)N1`, the Ki at Collagenase 3 [3] is 54 nM.

On to `CCC1CC(=O)N(c2ccc(Oc3ccccc3)cc2)C12C(=O)NC(=O)NC2=O` (single isomer, unassigned), for which the Ki in test [1] was 1.7 nM; at Interstitial collagenase, greater than 5000 nM; at Stromelysin-1, 1200 nM; in test [2] it was 7.2 nM; on Collagenase 3 [5], 4.1 nM; in test [4], greater than 1000 nM.

In the case of `CCC1CC(=O)N(c2ccc(Oc3ccccc3)cc2)C12C(=O)NC(=O)NC2=O` (stereo in doubt), the Ki in test [1] is 0.4 nM; on Interstitial collagenase it was greater than 5000 nM; at Stromelysin-1, 92 nM; in test [2], 0.87 nM; at Collagenase 3 [5] it was 0.54 nM; in test [4] it was greater than 1000 nM.

As usually defined, the Ki is the equilibrium dissociation constant of an inhibitor or competing ligand from its target.
